Counter-ions that a name gives are not always drawn.
What follows are compounds tested on IGF-1 induced AKT phosphorylation in A549 cells (assay: IGF-1 induced AKT phosphorylation assay (A549 cell assay)). Conditions: Homo sapiens, A549, read-out: average IC50 in the A549 cell assay.
Format: cell-based
Description: [Determination of IC50 Values of Compounds in Cell Based Assays of PI3K Activity] 96-well collagen treated clear bottom/black sided Costar plates were purchased from CORNING LIFE SCIENCES (Corning, N.Y.; at.#3904). Gibco RPMI medium (Cat.#11875), Biosource anti-phospho-AKT([…]) antibody (Cat.#44-621G) and recombinant IGF-1 (Cat.#PHG0074) were purchased from INVITROGEN (Carlsbad, Calif.). The secondary donkey anti-rabbit IgG horse radish peroxidase conjugate (Cat. #N[…]) and ECL chemiluminesence reagent (Cat.#RPN2209) were purchased from […] (Buckinghamshire, UK). Cell culture tested bovine serum albumin solution (35% in DPBS; Cat.#A7979) and all other chemicals were purchased from SIGMA (St. Louis, Mo.). The Wallac Victor2 1420 Multilabel HTS Counter was purchased from […] (Wellesley, Mass.) […] All wells (except no IGF-1 controls) were then treated with 25 ng/ml IGF-1 for 10 minutes at 37° C. in a 5% CO2 incubator. Following removal of the supernatants and washing with the wells with TBS (50 mM Tris pH 8.0 containing 138 mM NaCL and 27 mM KCl), 200 µL of 3.7% formaldehyde in TBS was added to each well, and the plate was incubated at 4° C. for 10 minutes. Supernatants were once again removed and replaced with 50 μL Methanol (-20° C.) and the plate incubated at 4° C. for 5 minutes. 200 μL of 0.1% BSA in TBS was then added to each well and the plate incubated at room temperature for 1⁄2 hour. Supernatants were removed and 50 μL of a solution comprising the primary anti-phospho-AKT([…]) antibody diluted 1:250 in TBS containing 0.1% BSA was added to each well (except control/background wells). The plate was then incubated for 11⁄2 hour at room temperature. Supernatants were removed, each well was washed 3 times with 200 μL TBS, and 100 μL of a solution containing the secondary donkey anti-rabbit IgG antibody HRP-conjugate diluted 1:100 in TBS-T (TBS containing 0.1% triton). Plates were then incubated for 1 hour at room temperature. After removing the secondary antibody, each well was washed 6 times with cold TBS-T, 100 μL of ECL was added to each well, and the plate was placed on an orbital shaker for 1 minute. The plates were then read on a Wallac Victor2 1420 Multilabel HTS Counter using the luminometry window (maximum light detection is measured at […]). IC50 values were determined from the inhibition curve.
In the case of `COc1c(OCCCN2CCOCC2)ccc2c1N=C(NC(=O)c1cnc(N)nc1)N1CCN=C21` [Example 13, 2-amino-N-[7-methoxy-8-(3-morpholin-4-ylpropoxy)-2,3-dihydroimidazo[1,2-c]quinazolin-5-yl]pyrimidine-5-carboxamide], the IC50 is reported as < 100 nM.

Same assay, conditions: Homo sapiens; A549 cells, 25 ng/ml IGF-1, phospho-AKT(Ser 473); read-out: average IC50 in the A549 cell assay
`COc1c(OCCCN2CCOCC2)ccc2c1N=C(NC(=O)c1cnc(SC)nc1)N1CCN=C21` [Example 91, N-[7-methoxy-8-(3-morpholin-4-ylpropoxy)-2,3-dihydroimidazo[1,2-c]quinazolin-5-yl]-2-(methylthio)pyrimidine-5-carboxamide] was tested, and the IC50 was < 100 nM.
Compound `COc1c(OCCCN2CCOCC2)ccc2c1N=C(NC(=O)c1cnc(N)s1)N1CCN=C21` [Example 4, 2-amino-N-[7-methoxy-8-(3-morpholin-4-ylpropoxy)-2,3-dihydroimidazo[1,2-c]quinazolin-5-yl]-1,3-thiazole-5-carboxamide] has an IC50 of 100 to 1000 nM.
In the case of `COc1c(OCCN(C)C)ccc2c1N=C(NC(=O)c1cccnc1)N1CCN=C21` [Example 89, N-{8-[2-(dimethylamino)ethoxy]-7-methoxy-2,3-dihydroimidazo[1,2-c]quinazolin-5-yl}nicotinamide], the IC50 is reported as 100 to 1000 nM.
In the case of `COc1c(OCCCN)ccc2c1N=C(NC(=O)c1cccnc1)N1CCN=C21` [Example 92, N-[8-(3-aminopropoxy)-7-methoxy-2,3-dihydroimidazo[1,2-c]quinazolin-5-yl]nicotinamide trifluoroacetate], the IC50 is reported as > 1000 nM.
In the case of `COCCN1CCOC(COc2ccc3c(c2OC)N=C(NC(=O)c2cccnc2)N2CCN=C32)C1` (stereo not drawn) [Example 22, N-(7-methoxy-8-{[4-(2-methoxyethyl)morpholin-2-yl]methoxy}-2,3-dihydroimidazo[1,2-c]quinazolin-5-yl)nicotinamide], the IC50 is reported as < 100 nM.
For `COc1c(OCCCN2CCOCC2)ccc2c1N=C(NC(=O)c1cnc(N)o1)N1CCN=C21` [Example 34, 2-amino-N-[7-methoxy-8-(3-morpholin-4-ylpropoxy)-2,3-dihydroimidazo[1,2-c]quinazolin-5-yl]-1,3-oxazole-5-carboxamide], the IC50 was 100 to 1000 nM.
With `COc1c(OCCCN2CCOCC2)ccc2c1N=C(NC(=O)c1ccc(NC(=O)C(C)C)nc1)N1CCN=C21` [Example 63, 6-(isobutyrylamino)-N-[7-methoxy-8-(3-morpholin-4-ylpropoxy)-2,3-dihydroimidazo[1,2-c]quinazolin-5-yl]nicotinamide] the IC50 was < 100 nM.
`COc1c(OCCCN2CCOCC2)ccc2c1N=C(NC(=O)c1ccncc1)N1CCN=C21` [Example 84, N-[7-methoxy-8-(3-morpholin-4-ylpropoxy)-2,3-dihydroimidazo[1,2-c]quinazolin-5-yl]isonicotinamide] gave an IC50 of 100 to 1000 nM.
In the case of `CNC(=O)Nc1nc(C(=O)NC2=Nc3c(ccc(OCCCN4CCOCC4)c3OC)C3=NCCN23)cs1` [Example 65, N-[7-methoxy-8-(3-morpholin-4-ylpropoxy)-2,3-dihydroimidazo[1,2-c]quinazolin-5-yl]-2-{[(methylamino)carbonyl]amino}-1,3-thiazole-4-carboxamide], the IC50 is reported as > 1000 nM.
`COc1c(OCCCN2CCOCC2)ccc2c1N=C(NC(=O)c1cnccn1)N1CCN=C21` [Example 81, N-[7-methoxy-8-(3-morpholin-4-ylpropoxy)-2,3-dihydroimidazo[1,2-c]quinazolin-5-yl]pyrazine-2-carboxamide] was tested, and the IC50 was > 1000 nM.
With `COc1c(OCCCN2CCOCC2)ccc2c1N=C(NC(=O)c1ccc(NC(=O)C3CC3)nc1)N1CCN=C21` [Example 60, 6-[(cyclopropylcarbonyl)amino]-N-[7-methoxy-8-(3-morpholin-4-ylpropoxy)-2,3-dihydroimidazo[1,2-c]quinazolin-5-yl]nicotinamide] the IC50 was < 100 nM.
`CCN(CC)CCCOc1ccc2c(c1OC)N=C(NC(=O)c1cccnc1)N1CCN=C21` [Example 85, N-{8-[3-(diethylamino)propoxy]-7-methoxy-2,3-dihydroimidazo[1,2-c]quinazolin-5-yl}nicotinamide] was tested, and the IC50 was < 100 nM.
`COCCNc1ccc(C(=O)NC2=Nc3c(ccc(OCCCN4CCOCC4)c3OC)C3=NCCN23)cn1` [Example 55, 6-[(2-methoxyethyl)amino]-N-[7-methoxy-8-(3-morpholin-4-ylpropoxy)-2,3-dihydroimidazo[1,2-c]quinazolin-5-yl]nicotinamide] gave an IC50 of 100 to 1000 nM.
For `COc1c(OCCCN2CCOCC2)ccc2c1N=C(NC(=O)c1cncnc1)N1CCN=C21` [Example 1, N-[7-methoxy-8-(3-morpholin-4-ylpropoxy)-2,3-dihydroimidazo[1,2-c]quinazolin-5-yl]pyrimidine-5-carboxamide], the IC50 was 100 to 1000 nM.
Compound `COc1c(OCCCN2CCOCC2)ccc2c1N=C(NC(=O)c1ccnc(N)c1)N1CCN=C21` [Example 5, 2-amino-N-[7-methoxy-8-(3-morpholin-4-ylpropoxy)-2,3-dihydroimidazo[1,2-c]quinazolin-5-yl]isonicotinamide] has an IC50 of 100 to 1000 nM.
For `COc1c(OCC(O)CN2CCOCC2)ccc2c1N=C(NC(=O)c1cccnc1)N1CCN=C21` (stereo not drawn) [Example 16, N-[8-(2-hydroxy-3-morpholin-4-ylpropoxy)-7-methoxy-2,3-dihydroimidazo[1,2-c]quinazolin-5-yl]nicotinamide], the IC50 was < 100 nM.
`CCCc1nc(N)ncc1C(=O)NC1=Nc2c(ccc(OCCCN3CCOCC3)c2OC)C2=NCCN12` [Example 7, 2-amino-N-[7-methoxy-8-(3-morpholin-4-ylpropoxy)-2,3-dihydroimidazo[1,2-c]quinazolin-5-yl]-4-propylpyrimidine-5-carboxamide] was tested, and the IC50 was < 100 nM.
With `COc1c(OCCCN2CCOCC2)ccc2c1N=C(NC(=O)c1cnc(N)c(Br)c1)N1CCN=C21` [Example 33, 6-amino-5-bromo-N-[7-methoxy-8-(3-morpholin-4-ylpropoxy)-2,3-dihydroimidazo[1,2-c]quinazolin-5-yl]nicotinamide] the IC50 was < 100 nM.
In the case of `CCN1CCOC(CCOc2ccc3c(c2OC)N=C(NC(=O)c2cccnc2)N2CCN=C32)C1` (stereo not drawn) [Example 8, N-{8-[2-(4-ethylmorpholin-2-yl)ethoxy]-7-methoxy-2,3-dihydroimidazo[1,2-c]quinazolin-5-yl}nicotinamide], the IC50 is reported as < 100 nM.
Work on `COc1c(OCCN(C(C)C)C(C)C)ccc2c1N=C(NC(=O)c1cccnc1)N1CCN=C21` [Example 86, N-{8-[2-(diisopropylamino)ethoxy]-7-methoxy-2,3-dihydroimidazo[1,2-c]quinazolin-5-yl}nicotinamide] yielded an IC50 of 100 to 1000 nM.
In the case of `COc1c(OCCCN2CCOCC2)ccc2c1N=C(NC(=O)c1ccc(N3CC[C@@H](N)C3)nc1)N1CCN=C21` [Example 52, 6-[(3R)-3-aminopyrrolidin-1-yl]-N-[7-methoxy-8-(3-morpholin-4-ylpropoxy)-2,3-dihydroimidazo[1,2-c]quinazolin-5-yl]nicotinamide hydrochloride], the IC50 is reported as < 100 nM.
For `COc1cncc(C(=O)NC2=Nc3c(ccc(OCCCN4CCOCC4)c3OC)C3=NCCN23)c1` [Example 100, 5-methoxy-N-[7-methoxy-8-(3-morpholin-4-ylpropoxy)-2,3-dihydroimidazo[1,2-c]quinazolin-5-yl]nicotinamide], the IC50 was 100 to 1000 nM.
`COc1c(OCCCN2CCOCC2)ccc2c1N=C(NC(=O)c1ccc(N3CC[C@H](N)C3)nc1)N1CCN=C21` [Example 51, 6-[(3S)-3-aminopyrrolidin-1-yl]-N-[7-methoxy-8-(3-morpholin-4-ylpropoxy)-2,3-dihydroimidazo[1,2-c]quinazolin-5-yl]nicotinamide hydrochloride hydrate] was tested, and the IC50 was 100 to 1000 nM.
